# Source: patent US9643970B2, “Substituted imidazo [1,5-a]pyrazines as PDE9 inhibitors” (H Lundbeck A/S, priority 2012, dated 2017)
# Target: PDE9 (Homo sapiens, UniProt O76083)
# Assay: PDE9 inhibition assay
# Assay type: biochemical
# Settings: not given
# Protocol: Reactions are initiated by addition of the cyclic nucleotide substrate, and reactions are allowed to proceed for one hr at room temperature before being terminated through mixing with 15 uL 8 mg/mL yttrium silicate SPA beads (Amersham). […] IC50 values were calculated by non linear regression using XLfit (IDBS).
# PDE9, sequence (O76083 whole entry): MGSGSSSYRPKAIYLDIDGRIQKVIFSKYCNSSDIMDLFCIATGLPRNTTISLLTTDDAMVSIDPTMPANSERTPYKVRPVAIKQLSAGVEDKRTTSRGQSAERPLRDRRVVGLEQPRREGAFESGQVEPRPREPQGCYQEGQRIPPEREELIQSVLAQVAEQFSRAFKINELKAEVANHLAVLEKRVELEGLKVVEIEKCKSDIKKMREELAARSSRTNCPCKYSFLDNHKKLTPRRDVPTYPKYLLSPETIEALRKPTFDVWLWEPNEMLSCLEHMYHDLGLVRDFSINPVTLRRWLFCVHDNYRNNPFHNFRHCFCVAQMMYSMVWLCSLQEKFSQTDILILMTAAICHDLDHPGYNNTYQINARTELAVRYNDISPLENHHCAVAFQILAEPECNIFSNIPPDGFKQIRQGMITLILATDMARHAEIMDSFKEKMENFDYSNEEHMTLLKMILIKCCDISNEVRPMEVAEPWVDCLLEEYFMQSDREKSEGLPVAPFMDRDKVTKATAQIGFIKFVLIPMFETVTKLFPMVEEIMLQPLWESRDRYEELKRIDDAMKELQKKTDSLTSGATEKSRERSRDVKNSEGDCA
row,IC50 [nM],SMILES
1,57,"CC(c1cn2c(C3CCCC3)ncc2c(=O)[nH]1)N1CC(c2ccc(N(C)C)cc2)C1 (stereo not drawn) [Compound 59, 3-cyclopentyl-6-[1-[3-(4-dimethylaminophenyl)azetidin-1-yl]ethyl]-7h-imidazo[1,5-a]pyrazin-8-one]"
2,18,"O=c1[nH]c(CN2CC(Oc3ccccc3F)C2)cn2c(-c3ccccc3)ncc12 [Compound 33, 6-[[3-(2-fluorophenoxy)azetidin-1-yl]methyl]-3-phenyl-7h-imidazo[1,5-a]pyrazin-8-one]"
3,20,"Cc1ccnc(C2CN(C(C)c3cn4c(-c5ccccc5)ncc4c(=O)[nH]3)C2)c1 (stereo not drawn) [Compound 29, 6-[1-[3-(4-methyl-2-pyridyl)azetidin-1-yl]ethyl]-3-phenyl-7h-imidazo[1,5-a]pyrazin-8-one]"
4,57,"COc1ccc(C2CN(Cc3cn4c(-c5ccc(F)cc5)ncc4c(=O)[nH]3)C2)cc1 [Compound 123, 3-(4-fluorophenyl)-6-[[3-(4-methoxyphenyl)azetidin-1-yl]methyl]-7h-imidazo[1,5-a]pyrazin-8-one]"
5,79,"O=c1[nH]c(CN2CC(c3ccccn3)C2)cn2c(-c3ccc(F)cc3)ncc12 [Compound 61, 3-(4-fluorophenyl)-6-[[3-(2-pyridyl)azetidin-1-yl]methyl]-7h-imidazo[1,5-a]pyrazin-8-one]"

# Same assay, conditions: SPA assay, 10 nM 3H-cAMP, 1 hour incubation; read-out: IC50
row,SMILES,IC50 [nM]
1,"O=c1[nH]c(CN2CC(Oc3cccc(F)n3)C2)cn2c(-c3ccc(F)cc3)ncc12 [Compound 60, 3-(4-fluorophenyl)-6-[[3-[(6-fluoro-2-pyridyl)oxy]azetidin-1-yl]methyl]-7h-imidazo[1,5-a]pyrazin-8-one]",164
2,"O=c1[nH]c(CN2CC(Oc3cccc(F)n3)C2)cn2c(C3CCOCC3)ncc12 [Compound 65, 6-[[3-[(6-fluoro-2-pyridyl)oxy]azetidin-1-yl]methyl]-3-tetrahydropyran-4-yl-7h-imidazo[1,5-a]pyrazin-8-one]",91
3,"O=c1[nH]c(CN2CC(c3ccccc3)C2)cn2c(-c3ccccc3)ncc12 [Compound 8, 3-phenyl-6-[(3-phenylazetidin-1-yl)methyl]-7h-imidazo[1,5-a]pyrazin-8-one]",78
4,"COC1CN(C(C)c2cn3c(-c4ccccc4)ncc3c(=O)[nH]2)C1 (stereo not drawn) [Compound 20, 6-[1-(3-methoxyazetidin-1-yl)ethyl]-3-phenyl-7h-imidazo[1,5-a]pyrazin-8-one]",17
5,"COC1CN(C(C)c2cn3c(-c4ccc(F)cc4)ncc3c(=O)[nH]2)C1 (stereo not drawn) [Compound 1, 3-(4-fluorophenyl)-6-[1-(3-methoxyazetidin-1-yl)ethyl]-7h-imidazo[1,5-a]pyrazin-8-one]",73

# The remaining lines, values ahead:
row,IC50 [nM],SMILES
1,41,"O=c1[nH]c(CN2CC(Oc3c(F)cccc3F)C2)cn2c(-c3ccc(F)cc3)ncc12 [Compound 121, 6-[[3-(2,6-difluorophenoxy)azetidin-1-yl]methyl]-3-(4-fluorophenyl)-7h-imidazo[1,5-a]pyrazin-8-one]"
2,6,"CCc1ccc(C2CN(Cc3cn4c(C5CCOCC5)ncc4c(=O)[nH]3)C2)cc1 [Compound 78, 6-[[3-(4-ethylphenyl)azetidin-1-yl]methyl]-3-tetrahydropyran-4-yl-7h-imidazo[1,5-a]pyrazin-8-one]"
3,177,"O=c1[nH]c(CN2CC(Oc3ccccc3)C2)cn2c(-c3ccc(F)cc3)ncc12 [Compound 73, 3-(4-fluorophenyl)-6-[(3-phenoxyazetidin-1-yl)methyl]-7h-imidazo[1,5-a]pyrazin-8-one]"
4,4,"O=c1[nH]c(CN2CC(c3ccc(C(F)(F)F)cn3)C2)cn2c(-c3ccc(F)cc3)ncc12 [Compound 77, 3-(4-fluorophenyl)-6-[[3-[5-(trifluoromethyl)-2-pyridyl]azetidin-1-yl]methyl]-7h-imidazo[1,5-a]pyrazin-8-one]"
5,7,"CC1CN(Cc2ccc(F)cc2)CC1c1cn2c(C3CCOCC3)ncc2c(=O)[nH]1 (stereo not drawn) [Compound 89, 6-[1-[(4-fluorophenyl)methyl]-4-methyl-pyrrolidin-3-yl]-3-tetrahydropyran-4-yl-7h-imidazo[1,5-a]pyrazin-8-one]"
